Consider three compounds from patent publication US20230404989A1, “GRK2 INHIBITION BY PAROXETINE AMELIORATES OSTEOARTHRITIS” (THE PENN STATE RESEARCH FOUNDATION, priority 2020, published 2023).

In test [1] the test system is DMM mice. Kind of test: Paroxetine combined with PTH in DMM mice: Micro-CT of subchondral bone. The format is in vivo, mouse. To be noted: daily from 8 weeks, harvest 12 weeks after surgery.
In test [2] the test system is DMM mice. Kind of test: DMM mice treated with PTH, paroxetine or their combination: histology and histomorphometry (Example 1). The test is classed as in vivo, mouse. The settings on record: treatment week 8 to 12, PTH sc 40 μg/kg/day, paroxetine ip 5 mg/kg/day. The procedure:
Methods: Destabilization of the medial meniscus (DMM) surgery was used to simulate clinical post-traumatic OA. First, we determined the role of GRK2 inhibition in PTH1R Gas-cAMP signaling: 12 week old male mice underwent sham or DMM surgery and were treated with either vehicle or the GRK2 inhibitor “paroxetine” (ip, 5 mg/kg/day), treatment was initiated at the time of surgery and continued daily until 8 weeks. Knees were harvested and articular cartilage was obtained for ex vivo analysis of Gas activity. In ex vivo culture, cartilage explants were treated with PTH as an agonist to stimulate PTH1R-Ga-cAMP signaling. Thirty minutes following PTH stimulation, cartilage tissue was homogenized and cAMP levels were measured. Then, we determined the role of GRK2 inhibition in recovering or even potentiating PTH1R signaling in OA cartilage: 12 week old male mice underwent sham or DMM surgery, and received treatment with vehicle, PTH (sc, 40 μg/kg/day) alone, the GRK2 inhibitor “paroxetine3” (ip, 5 mg/kg/day) alone, or their combination. Treatment was initiated at week 8 following DMM surgery, where OA is in progress, and continued until week 12 where mice were sacrificed. Knees were harvested, paraffin embedded, sectioned and stained with safranin-o and fast green for histological evaluation, OARSI scoring, and histomorphometric analysis. Results are expressed as mean values+s.e.m. with an N=5-8 mice per experimental group. Statistical analyses were performed using one ANVOA with P<0.05 representing statistical significance.

Test [3] relates to DMM mice. Description: Anterior femoral synovial membrane thickness in DMM mice. The format is in vivo, mouse. The settings on record: daily ip week 8 to 12, versus vehicle. The procedure: Drug treatment studies: In twelve-week old male wild type C57BL/6 mice that received DMM surgeries, vehicle (PBS), paroxetine (5 mg/kg/day), fluoxetine (5 mg/kg/day), gallein (10 mg/kg/day) or indomethacin (2.5 mg/kg/day) were administered daily by ip injection. Drug treatment was initiated 8 weeks following DMM to determine the role of GRK2 signaling in the progression of OA. Using Safranin-O/Fast Green-stained sections, the OsteoMetrics system was used to quantify the above parameters on three sections from representative levels (50 μm apart) of the medial compartment of the joint for each sample. Live images of the center of the knee joint were collected through an Olympus microscope (10× objective) outfitted with a camera, a stylus was used to trace the regions of interest (ROIs). A blinded observer quantified uncalcified articular cartilage area, total chondrocyte number and matrix-producing chondrocyte number using the built-in area calculation algorithms and quantification functions of the OsteoMeasure® system. […] The calcified cartilage was determined with a line drawn along the tide mark, which is the naturally occurring line separating the calcified and uncalcified regions of the articular cartilage. A second line was drawn at the chondro-osseous junction where the calcified cartilage meets the subchondral bone. The uncalcified cartilage area was determined by subtracting the calcified cartilage area from the total area of cartilage. Total chondrocyte number and matrix-producing chondrocyte number were counted within the uncalcified cartilage region using count functions within the histomorphometry system. Matrix-producing chondrocytes were counted based on the region of Safranin-O staining within the extracellular matrix surrounding the articular chondrocyte, indicating anabolic signaling to maintain matrix homeostasis. Similarly, the anterior femoral synovial thickness was measured using OsteoMeasure® software. Synovial membrane thickness extending from anterior horn of the medial meniscus to the femur was determined by drawing a line from the inner insertion point on the femur towards the attachment on the meniscus. A second line was drawn from the outer insertion of the femur towards the attachment to the meniscus. The synovial thickness was calculated by dividing total synovial area by synovial perimeter.

The subject of test [4] is DMM mice. Kind of test: DMM drug treatment study: OARSI scoring and histomorphometry of knee cartilage. The format is in vivo, mouse. The procedure: Drug treatment studies: In twelve-week old male wild type C57BL/6 mice that received DMM surgeries, vehicle (PBS), paroxetine (5 mg/kg/day), fluoxetine (5 mg/kg/day), gallein (10 mg/kg/day) or indomethacin (2.5 mg/kg/day) were administered daily by ip injection. Drug treatment was initiated 8 weeks following DMM to determine the role of GRK2 signaling in the progression of OA.
Twelve-week-old male mice were administered DMM surgery to the right knee and sham surgery to the left knee as described (S. S. Glasson, Osteoarthritis. Cartilage. 15, 1061-1069 (2007)). Briefly, mice were anesthetized via intraperitoneal injection of ketamine (60 mg/kg) and xylazine (4 mg/kg), and a 5-mm-long incision was made on the medial side of the knee. Under a dissecting microscope, an incision was made along the medial side of the patellar tendon, opening the joint space. Using a #11 scalpel, the medial meniscotibial ligament (MMTL) was transected, enabling the medial meniscus to move freely. A similar skin incision was made in sham knees, but the joint structure was not disturbed. For the sham group, both right and left knees had sham surgeries. After surgery, 4-0 silk sutures were used to close the incision using an interrupted pattern. Mice were provided analgesia via intraperitoneal injection of buprenorphine (0.5 mg/kg) every 12 hours for 72 hours, and sutures were removed after 7 days. Mice were sacrificed, at the indicated time points, by anesthesia followed with whole animal perfusion using 10% NBF, knees were harvested and fixed for 7 days in 10% NBF, decalcified for 7 days in 10% w/v EDTA, embedded in paraffin, and 10-μm sections were cut and mounted for Safranin-O/Fast Green or IF staining.
Semi-quantitative histopathologic grading was performed using a derivative of the Chambers' scoring system that has been established by the OARSI histopathology initiative as the standard method for grading of mouse cartilage degeneration. Based on this system, cartilage grading was carried out using Safranin-O/Fast Green-stained midsagittal sections. Three sections from representative levels (50 μm apart) of the medial compartment of the joint were selected for each sample and, which were evaluated in a randomized, blinded manner by 3 laboratory members. The 3 scores were averaged to calculate the section score, and the sample score was then calculated by averaging the scores obtained from the three levels. Grading was performed using the following scale: 0=normal cartilage, 0.5=loss of proteoglycan stain without cartilage damage, 1=mild superficial fibrillation, 2=fibrillation and/or clefting extending below the superficial zone, 3=mild (<25%) loss of cartilage, 4=moderate (25-50%) loss of cartilage, 5=severe (50-75%) loss of uncalcified cartilage, and 6=eburnation with >75% loss of cartilage. Grading was performed by three blinded observers (F.K., M.J.Z., and E.R.S.). Observer agreement was evaluated in pairs via calculation of a weighted kappa coefficient, using Fleiss-Cohen weights, as we have described. The F.K. versus M.J.Z. coefficient was 0.92, the F.K. versus E.R.S. coefficient was 0.94, and the M.J.Z. versus E.R.S coefficient was 0.89, all indicative of strong agreement between the observers.
Using Safranin-O/Fast Green-stained sections, the OsteoMetrics system was used to quantify the above parameters on three sections from representative levels (50 μm apart) of the medial compartment of the joint for each sample. Live images of the center of the knee joint were collected through an Olympus microscope (10× objective) outfitted with a camera, a stylus was used to trace the regions of interest (ROIs). A blinded observer quantified uncalcified articular cartilage area, total chondrocyte number and matrix-producing chondrocyte number using the built-in area calculation algorithms and quantification functions of the OsteoMeasure® system. […]

Test [5] deals with Gas activity (cAMP content in cartilage). Description: cAMP assay in tibial articular cartilage of drug-treated DMM mice. The format is in vivo, mouse. The settings on record: daily ip week 8 to 12. The procedure: Drug treatment studies: In twelve-week old male wild type C57BL/6 mice that received DMM surgeries, vehicle (PBS), paroxetine (5 mg/kg/day), fluoxetine (5 mg/kg/day), gallein (10 mg/kg/day) or indomethacin (2.5 mg/kg/day) were administered daily by ip injection. Drug treatment was initiated 8 weeks following DMM to determine the role of GRK2 signaling in the progression of OA. Short term drug treatment study: To evaluate the acute effect of drug treatments, GRK2^f/f mice received sham or DMM surgery followed by treatment with vehicle, paroxetine, gallein, fluoxetine, or indomethacin with the doses indicated above for 1 week beginning at 8 weeks post DMM. All mice were sacrificed 9 weeks post DMM, 21 weeks of age, for analysis of OA progression. Gas activity was measured by quantifying cAMP content in cartilage pooled from 3 mice. Tibial cartilage was dissected out and snap frozen in liquid Nitrogen. As positive control, tibial cartilage obtained from normal mice was treated with 0.5 mM 3-isobutyl-1-methylxanthine (IBMX) for 30 minutes, followed by 0.1 mM Forskolin for 15 minutes, then snap frozen in liquid Nitrogen. For human cartilage cAMP content, 70 mg frozen cartilage were used. Frozen cartilage was pulverized using 500 μL lysis buffer as we have previously described (H. K. Le Bleu, Anal Biochem, 518, 134-138 (2017)). cAMP content was quantified using the Cyclic AMP XP Assay kit (Cell Signaling, #4339) and following manufacturer's protocol, with 0.5 mM IBMX added to the lysis buffer to prevent phosphodiesterase mediated cAMP degradation during the extraction process. cAMP levels in different groups were normalized to that of sham mice or the vehicle treated human cartilage.

The target of the next test is T1, GRK2 (Homo sapiens, UniProt P25098).
T1 sequence (P25098 1-689): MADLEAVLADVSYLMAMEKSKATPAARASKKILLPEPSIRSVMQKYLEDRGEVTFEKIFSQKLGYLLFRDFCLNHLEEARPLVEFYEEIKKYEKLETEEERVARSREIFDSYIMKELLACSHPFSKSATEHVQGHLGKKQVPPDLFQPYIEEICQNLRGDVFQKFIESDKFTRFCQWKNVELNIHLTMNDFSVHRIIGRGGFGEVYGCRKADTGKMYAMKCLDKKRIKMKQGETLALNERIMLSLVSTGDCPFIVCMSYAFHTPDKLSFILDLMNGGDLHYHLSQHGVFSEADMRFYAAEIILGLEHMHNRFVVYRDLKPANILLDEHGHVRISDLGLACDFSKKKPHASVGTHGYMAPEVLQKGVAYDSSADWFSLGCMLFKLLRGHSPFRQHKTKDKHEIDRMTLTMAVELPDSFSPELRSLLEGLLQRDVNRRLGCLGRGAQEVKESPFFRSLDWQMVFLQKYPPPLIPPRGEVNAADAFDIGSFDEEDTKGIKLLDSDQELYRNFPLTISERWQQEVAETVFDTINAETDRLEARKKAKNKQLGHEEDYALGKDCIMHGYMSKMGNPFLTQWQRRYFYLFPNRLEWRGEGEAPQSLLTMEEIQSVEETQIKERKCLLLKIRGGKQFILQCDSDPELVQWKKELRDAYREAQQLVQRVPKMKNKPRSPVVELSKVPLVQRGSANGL
To be noted: from cited literature; cited from earlier work.

Setting [6] is: daily ip week 8 to 12, versus vehicle.

Consider parathyroid hormone [PTH], for which the “effect on the subchondral bone of OA mice (plate thickness, BMD, BV/TV, Tb.Th, osteophytes)” value in the test on DMM mice [1] is on record as “deleterious effects”. Moreover, in the test on DMM mice [2], the chondrocyte number result is on record as “increased”, the “number of matrix-producing (anabolic) chondrocytes” value was “particular increase” and the uncalcified cartilage area result is “increased”.
In the case of `COc1ccc2c(c1)c(CC(=O)O)c(C)n2C(=O)c1ccc(Cl)cc1` [indomethacin], the synovial membrane thickness entry in the test with DMM mice [3] was “significantly reduced”. In addition, in the test with DMM mice [4] (daily ip week 8 to 12), the “cartilage degeneration (Safranin-O and Fast Green histology)” value is on record as “progressive cartilage degeneration”; the “chondro-protective and matrix-regenerative effects (overall)” value is “no chondro-protective or matrix-regenerative effects”.
Take `CNCCC(Oc1ccc(C(F)(F)F)cc1)c1ccccc1` (stereo not shown) [fluoxetine]: the synovial membrane thickness entry in the test on DMM mice [3] is reported as “attenuated”. In addition, the “cAMP levels in the articular cartilage” value in test [5] is on record as “not different from vehicle treated mice”. At GRK2, the GRK2 inhibitory effect entry is “lacks any GRK2-inhibitory effects”. In the test with DMM mice [4] (daily ip week 8 to 12), the “cartilage degeneration (Safranin-O and Fast Green histology)” value was “progressive cartilage degeneration”; the “chondro-protective and matrix-regenerative effects (overall)” value is “lacks chondro-protective and matrix-regenerative effects”; the “total number of chondrocytes” value is reported as “only mild preservation”; the uncalcified cartilage area result was “no preservation”. Also, in the test with DMM mice [4] (setting [6]), the OARSI score entry is reported as “high” and the “number of matrix producing chondrocytes” value is recorded as “low”.
